The results in this text go back to patent publication US20260327214A1, “1,3,4-OXADIAZOLE DERIVATIVE COMPOUNDS AS HISTONE DEACETYLASE 6 INHIBITOR, AND USES THEREOF” (CHONG KUN DANG PHARMACEUTICAL CORP., priority 2022, published 2026).

Structures are written as SMILES. Where only a bound is given, the exact number is not on record here.

The target in one experiment is T1, human recombinant HDAC6 (Homo sapiens, UniProt Q9UBN7).
T1 construct: purchased Calbiochem 382180
T1 sequence (Q9UBN7 1-1215): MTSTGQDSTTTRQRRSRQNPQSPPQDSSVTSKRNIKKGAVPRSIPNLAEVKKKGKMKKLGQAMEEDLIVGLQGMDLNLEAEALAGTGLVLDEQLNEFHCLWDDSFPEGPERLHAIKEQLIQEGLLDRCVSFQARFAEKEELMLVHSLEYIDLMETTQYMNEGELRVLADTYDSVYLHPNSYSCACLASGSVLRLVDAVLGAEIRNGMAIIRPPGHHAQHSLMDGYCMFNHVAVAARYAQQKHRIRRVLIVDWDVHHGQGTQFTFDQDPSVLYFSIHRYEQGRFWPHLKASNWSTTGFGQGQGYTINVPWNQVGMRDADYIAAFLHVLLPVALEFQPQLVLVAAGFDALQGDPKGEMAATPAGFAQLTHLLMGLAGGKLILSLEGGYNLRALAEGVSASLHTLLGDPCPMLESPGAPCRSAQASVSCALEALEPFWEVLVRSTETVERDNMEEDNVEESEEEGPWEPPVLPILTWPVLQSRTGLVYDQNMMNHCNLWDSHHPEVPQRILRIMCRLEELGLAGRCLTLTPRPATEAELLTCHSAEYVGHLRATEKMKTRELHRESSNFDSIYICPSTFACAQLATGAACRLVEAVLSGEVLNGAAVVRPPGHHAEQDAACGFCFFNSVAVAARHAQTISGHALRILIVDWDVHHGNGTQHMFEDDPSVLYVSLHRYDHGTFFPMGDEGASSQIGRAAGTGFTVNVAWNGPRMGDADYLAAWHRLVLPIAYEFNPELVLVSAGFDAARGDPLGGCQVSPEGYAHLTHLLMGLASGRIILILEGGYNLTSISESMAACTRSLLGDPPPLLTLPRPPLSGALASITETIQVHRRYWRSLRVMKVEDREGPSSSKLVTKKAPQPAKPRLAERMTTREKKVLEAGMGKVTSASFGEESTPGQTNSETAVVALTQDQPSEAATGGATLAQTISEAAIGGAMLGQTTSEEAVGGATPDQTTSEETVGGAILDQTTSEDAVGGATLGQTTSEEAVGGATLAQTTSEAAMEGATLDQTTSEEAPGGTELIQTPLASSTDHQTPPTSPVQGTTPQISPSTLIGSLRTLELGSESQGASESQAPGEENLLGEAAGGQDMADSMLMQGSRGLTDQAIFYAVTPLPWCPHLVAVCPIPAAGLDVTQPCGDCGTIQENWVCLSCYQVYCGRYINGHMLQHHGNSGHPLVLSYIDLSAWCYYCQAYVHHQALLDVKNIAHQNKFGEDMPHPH
The experiment is described as follows: HDAC6 enzyme activity inhibition test (HDAC Fluorometric Drug Discovery Kit). Type of experiment: biochemical. The settings on record: for HDAC6 selectivity (fold): HDAC6 over HDAC1; for IC50: human recombinant HDAC6, same protocol as HDAC1. In outline:
(§1)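 IC50 derived from fluorescence (Ex 360, Em 460) following 30 min development with Developer II. Each reaction held 0.3 μg human recombinant HDAC1 or HDAC6, 10 μM Fluor de Lys SIRT1 substrate and 5-fold serially diluted compound, incubated 60 min at 30 °C.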

Another experiment has as its target T2, human recombinant HDAC1 (Homo sapiens, UniProt Q13547).
T2 construct: purchased Enzo Life Science BML-SE456
The experiment is described as follows: HDAC1 enzyme activity inhibition test (HDAC Fluorometric Drug Discovery Kit). The settings on record: 30° C., 60 minutes, 10 μM substrate. The format is biochemical. In outline:
as §1

T2 sequence (Q13547 whole entry): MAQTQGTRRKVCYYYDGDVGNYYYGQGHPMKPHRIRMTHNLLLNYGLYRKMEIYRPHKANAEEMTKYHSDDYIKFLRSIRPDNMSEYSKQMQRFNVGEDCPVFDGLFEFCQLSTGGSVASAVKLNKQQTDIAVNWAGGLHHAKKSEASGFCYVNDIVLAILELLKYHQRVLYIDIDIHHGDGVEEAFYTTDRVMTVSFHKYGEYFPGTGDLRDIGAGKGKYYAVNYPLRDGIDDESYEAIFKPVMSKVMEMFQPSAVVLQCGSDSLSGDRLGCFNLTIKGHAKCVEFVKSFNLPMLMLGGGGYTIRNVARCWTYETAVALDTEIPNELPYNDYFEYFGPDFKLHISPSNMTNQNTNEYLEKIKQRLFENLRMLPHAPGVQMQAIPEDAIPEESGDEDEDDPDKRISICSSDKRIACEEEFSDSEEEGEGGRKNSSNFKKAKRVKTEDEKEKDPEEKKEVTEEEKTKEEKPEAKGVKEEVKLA

For `CC(C)N1CCC(c2ccc(-c3nn(Cc4ccc(-c5nnc(C(F)F)o5)cn4)c(=O)s3)cc2)CC1` [Compound 55, 3-[[5-[5-(difluoromethyl)-1,3,4-oxadiazol-2-yl]-2-pyridyl]methyl]-5-[4-(1-isopropyl-4-piperidyl)phenyl]-1,3,4-thiadiazol-2-one], at human recombinant HDAC6, the “HDAC6 selectivity (fold)” value was determined as 634 fold and the IC50 is 78.9 nM. Moreover, the IC50 at human recombinant HDAC1 is more than 50000 nM.

Regarding `O=c1sc(-c2ccc(C3CCN(C4COC4)CC3)cc2)nn1Cc1ccc(-c2nnc(C(F)F)o2)cn1` [Compound 56, 3-[[5-[5-(difluoromethyl)-1,3,4-oxadiazol-2-yl]-2-pyridyl]methyl]-5-[4-[1-(oxetane-3-yl)-4-piperidyl]phenyl]-1,3,4-thiadiazol-2-one], on human recombinant HDAC6, the “HDAC6 selectivity (fold)” value worked out at 422 fold and the half-maximal inhibitory concentration (IC50) is 118 nM. For the same compound, on human recombinant HDAC1, the 50% inhibitory concentration (IC50) is more than 50000 nM.

Regarding `CC(C)N1CCC(c2cccc(-c3nn(Cc4ccc(-c5nnc(C(F)F)o5)cn4)c(=O)s3)c2F)CC1` [Compound 57, 3-[[5-[5-(difluoromethyl)-1,3,4-oxadiazol-2-yl]-2-pyridyl]methyl]-5-[2-fluoro-3-(1-isopropyl-4-piperidyl)phenyl]-1,3,4-thiadiazol-2-one], the “HDAC6 selectivity (fold)” value at human recombinant HDAC6 worked out at 954 fold. Moreover, the IC50 on human recombinant HDAC6 was 52.4 nM; at human recombinant HDAC1 it was more than 50000 nM.

Regarding `O=c1sc(-c2cccc(C3CCN(C4COC4)CC3)c2F)nn1Cc1ccc(-c2nnc(C(F)F)o2)cn1` [Compound 58, 3-[[5-[5-(difluoromethyl)-1,3,4-oxadiazol-2-yl]-2-pyridyl]methyl]-5-[2-fluoro-3-[1-(oxetane-3-yl)-4-piperidyl]phenyl]-1,3,4-thiadiazol-2-one], on human recombinant HDAC6, the “HDAC6 selectivity (fold)” value was 643 fold and the half-maximal inhibitory concentration (IC50) turned out to be 77.8 nM. For the same compound, the IC50 on human recombinant HDAC1 was more than 50000 nM.

As to `Cc1nc(-c2nn(Cc3ccc(-c4nnc(C(F)F)o4)cn3)c(=S)o2)cs1` [Compound 59, 3-[[5-[5-(difluoromethyl)-1,3,4-oxadiazol-2-yl]-2-pyridyl]methyl]-5-(2-methylthiazol-4-yl)-1,3,4-oxadiazol-2-thione], at human recombinant HDAC6, the “HDAC6 selectivity (fold)” value amounted to 669 fold and the IC50 was 74.7 nM. The IC50 at human recombinant HDAC1 was more than 50000 nM.

`Cc1nc(-c2nn(Cc3ncc(-c4nnc(C(F)F)o4)cc3F)c(=S)o2)cs1` [Compound 60, 3-[[5-[5-(difluoromethyl)-1,3,4-oxadiazol-2-yl]-3-fluoro-2-pyridyl]methyl]-5-(2-methylthiazol-4-yl)-1,3,4-oxadiazol-2-thione]: the “HDAC6 selectivity (fold)” value at human recombinant HDAC6 amounted to 614 fold. Further, the results for the IC50 on human recombinant HDAC6 and at human recombinant HDAC1 were 81.4 nM and more than 50000 nM, respectively.

Regarding `Cc1ncc(-c2nn(Cc3ncc(-c4nnc(C(F)F)o4)cc3F)c(=S)o2)s1` [Compound 61, 3-[[5-[5-(difluoromethyl)-1,3,4-oxadiazol-2-yl]-3-fluoro-2-pyridyl]methyl]-5-(2-methylthiazol-5-yl)-1,3,4-oxadiazol-2-thione], at human recombinant HDAC6, the “HDAC6 selectivity (fold)” value turned out to be 540 fold and the IC50 was 92.6 nM. The IC50 at human recombinant HDAC1 was more than 50000 nM.

Take `Fc1cc(-c2nnc(C(F)F)o2)cnc1Cn1nc(-c2cccnc2)oc1=S` [Compound 62, 3-[[5-[5-(difluoromethyl)-1,3,4-oxadiazol-2-yl]-3-fluoro-2-pyridyl]methyl]-5-(3-pyridyl)-1,3,4-oxadiazol-2-thione]: at human recombinant HDAC6, the “HDAC6 selectivity (fold)” value amounted to 500 fold. Besides, the values for the IC50 on human recombinant HDAC6 and on human recombinant HDAC1 were 100 nM and more than 50000 nM, respectively.

Consider `CC(C)N1CCN(Cc2cccc(-c3nn(Cc4ccc(-c5nnc(C(F)F)o5)cn4)c(=O)s3)c2)CC1` [Compound 63, 3-[[5-[5-(difluoromethyl)-1,3,4-oxadiazol-2-yl]-2-pyridyl]methyl]-5-[3-[(4-isopropylpiperazin-1-yl)methyl]phenyl]-1,3,4-thiadiazol-2-one], for which the “HDAC6 selectivity (fold)” value on human recombinant HDAC6 turned out to be 620 fold. Further, the results for the IC50 on human recombinant HDAC6 and at human recombinant HDAC1 were 80.7 nM and more than 50000 nM, respectively.

For `O=c1sc(-c2cccc(CN3CCN(C4CCC4)CC3)c2)nn1Cc1ccc(-c2nnc(C(F)F)o2)cn1` [Compound 64, 5-[3-[(4-cyclobutylpiperazin-1-yl)methyl]phenyl]-3-[[5-[5-(difluoromethyl)-1,3,4-oxadiazol-2-yl]-2-pyridyl]methyl]-1,3,4-thiadiazol-2-one], on human recombinant HDAC6, the “HDAC6 selectivity (fold)” value came to 418 fold and the IC50 amounted to 120 nM. Further, the IC50 at human recombinant HDAC1 is more than 50000 nM.

`O=c1sc(-c2cccc(CN3CCN(C4CS(=O)(=O)C4)CC3)c2)nn1Cc1ccc(-c2nnc(C(F)F)o2)cn1` [Compound 65, 3-[[5-[5-(difluoromethyl)-1,3,4-oxadiazol-2-yl]-2-pyridyl]methyl]-5-[3-[[4-(1,1-dioxothietan-3-yl)piperazin-1-yl]methyl]phenyl]-1,3,4-thiadiazol-2-one]: the “HDAC6 selectivity (fold)” value at human recombinant HDAC6 is recorded as 537 fold. Moreover, the IC50 at human recombinant HDAC6 was 93.1 nM; on human recombinant HDAC1, more than 50000 nM.

Consider `CC(C)N1CCN(Cc2ccc(-c3nn(Cc4ccc(-c5nnc(C(F)F)o5)cn4)c(=O)s3)cc2)CC1` [Compound 66], for which the “HDAC6 selectivity (fold)” value on human recombinant HDAC6 was 1497 fold. Also, the results for the IC50 on human recombinant HDAC6 and at human recombinant HDAC1 were 33.4 nM and more than 50000 nM, respectively.

With `O=c1sc(-c2ccc(CN3CCN(C4CCC4)CC3)cc2)nn1Cc1ccc(-c2nnc(C(F)F)o2)cn1` [Compound 67], the “HDAC6 selectivity (fold)” value at human recombinant HDAC6 turned out to be 890 fold. Also, the IC50 at human recombinant HDAC6 was 56.2 nM; on human recombinant HDAC1, more than 50000 nM.

Consider `O=c1sc(-c2ccc(CN3CCN(C4CS(=O)(=O)C4)CC3)cc2)nn1Cc1ccc(-c2nnc(C(F)F)o2)cn1` [Compound 68], for which, on human recombinant HDAC6, the “HDAC6 selectivity (fold)” value is recorded as 473 fold and the IC50 worked out at 106 nM. Besides, the IC50 at human recombinant HDAC1 was more than 50000 nM.

On to `O=C1OCC(c2cccs2)=NN1Cc1ccc(-c2nnc(C(F)F)o2)cn1` [Compound 69, 3-[[5-[5-(difluoromethyl)-1,3,4-oxadiazol-2-yl]-2-pyridyl]methyl]-5-(2-thienyl)-6H-1,3,4-oxadiazin-2-one], for which, at human recombinant HDAC6, the “HDAC6 selectivity (fold)” value was 434 fold and the IC50 was 115 nM. For the same compound, the IC50 on human recombinant HDAC1 is more than 50000 nM.

Take `O=C1OCC(c2cccs2)=NN1Cc1ncc(-c2nnc(C(F)F)o2)cc1F` [Compound 70, 3-[[5-[5-(difluoromethyl)-1,3,4-oxadiazol-2-yl]-3-fluoro-2-pyridyl]methyl]-5-(2-thienyl)-6H-1,3,4-oxadiazin-2-one]: on human recombinant HDAC6, the “HDAC6 selectivity (fold)” value came out at 460 fold and the IC50 was 109 nM. Further, the IC50 on human recombinant HDAC1 was more than 50000 nM.

With `O=C1OCC(c2ccccc2)=NN1Cc1ncc(-c2nnc(C(F)F)o2)cc1F` [Compound 71, 3-[[5-[5-(difluoromethyl)-1,3,4-oxadiazol-2-yl]-3-fluoro-2-pyridyl]methyl]-5-phenyl-6H-1,3,4-oxadiazin-2-one], at human recombinant HDAC6, the “HDAC6 selectivity (fold)” value is 510 fold. Also, the half-inhibitory concentration (IC50) at human recombinant HDAC6 was 98 nM; at human recombinant HDAC1, more than 50000 nM.

As to `O=C1OCC(c2ccccn2)=NN1Cc1ccc(-c2nnc(C(F)F)o2)cn1` [Compound 72, 3-[[5-[5-(difluoromethyl)-1,3,4-oxadiazol-2-yl]-2-pyridyl]methyl]-5-(2-pyridyl)-6H-1,3,4-oxadiazin-2-one], on human recombinant HDAC6, the “HDAC6 selectivity (fold)” value is given as 420 fold and the half-inhibitory concentration (IC50) was found to be 119 nM. Also, the IC50 at human recombinant HDAC1 was more than 50000 nM.

Turning to `O=C1OCC(c2ccccn2)=NN1Cc1ncc(-c2nnc(C(F)F)o2)cc1F` [Compound 73, 3-[[5-[5-(difluoromethyl)-1,3,4-oxadiazol-2-yl]-3-fluoro-2-pyridyl]methyl]-5-(2-pyridyl)-6H-1,3,4-oxadiazin-2-one], on human recombinant HDAC6, the “HDAC6 selectivity (fold)” value stood at 442 fold and the 50% inhibitory concentration (IC50) was found to be 113 nM. Moreover, on human recombinant HDAC1, the IC50 was more than 50000 nM.

With `O=C1OCC(c2ccc(-c3ccccn3)s2)=NN1Cc1ccc(-c2nnc(C(F)F)o2)cn1` [Compound 74, 3-[[5-[5-(difluoromethyl)-1,3,4-oxadiazol-2-yl]-2-pyridyl]methyl]-5-[5-(2-pyridyl)-2-thienyl]-6H-1,3,4-oxadiazin-2-one], the “HDAC6 selectivity (fold)” value at human recombinant HDAC6 is given as 828 fold. Besides, the 50% inhibitory concentration (IC50) was 60.4 nM on human recombinant HDAC6 and more than 50000 nM at human recombinant HDAC1.

As a reminder, the IC50 is the midpoint of a concentration-inhibition curve.
